Test results reported in patent US9937194B1, “Compounds and methods for treating inflammatory diseases” (priority 2009, dated 2018).
Values after ≈ are worked out from the molar mass of the structure shown. Where two headings read alike, the source gives them in different places.

Assays:
[1] = tested on: IL-8; test: LPS-induced IL-8 release in PMA-differentiated U937 cells (ELISA); type: cell-based, human; conditions: for IL-8 inhibition (%): test concentration not given
Description: (§1) Cytokine ELISA. LPS-induced IL-8, TNFα concentrations and TNFα-induced IL-8 concentrations are determined by sandwich ELISA according to the manufacturer's instructions (R&D Systems Europe). IC50 values for dexamethasone on IL-8 production are calculated using the computer program Prism 4.0 (GraphPad Software Inc., San Diego, Calif.) as a marker for steroid sensitivity.
(§2) Effects of compounds on LPS-induced IL-8 and TNFα release in PMA-differentiated U937 cells. PMA-differentiated macrophage-like cells are pretreated with compounds described herein for 1 hr, followed by LPS (100 ng/ml) stimulation for 4 hrs. LPS-induced IL-8 and TNFα release is evaluated by ELISA. Values represent means of three experiments±SEM.

[2] = type: cell-based
Description: The human monocytic cell line U937 and the human type II alveolar epithelial carcinoma cell line A549 were obtained from the American Type Culture Collection (ATCC, Rockville, Md.). PBMCs from COPD patients were obtained in Brompton hospital and separated by AccuSPIN (Sigma-Aldrich, Poole, UK). Cells were cultured in complete growth medium (Sigma-Aldrich) (RPMI 1640 for U937, PBMCs, and Dulbecco's modified essential medium (DMEM) for A549) supplemented with 10% fetal bovine serum (FBS) and 1% L-glutamine at 37° C. in a humidified atmosphere with 5% CO2. U937 were differentiated into an adherent macrophage-like morphology by exposure to PMA (50 or 100 ng/ml) for 48 hrs in complete growth medium. Cell viability was assessed microscopically by trypan blue staining. Cell toxicity was determined by MTT assay as needed. This study was approved by the ethics committee of the Royal Brompton Hospitals, and all subjects gave written informed consent.

[3] = tested on: Akt; test: H2O2-induced phosphorylation of Akt in PMA-differentiated U937 cells (western blot); type: cell-based, human; conditions: PMA-differentiated U937; H2O2 1 mM 30 min
Description: Cell Lysis and Western Blotting. Whole cell protein extracts are prepared using modified RIPA buffer (50 mM Tris HCL pH 7.4, 0.5% NP-40, 0.25% Na-deoxycholate, 150 mM NaCl with freshly added complete protease (Roche). Phosphatase inhibitor (Active Motif) is also added when required. Protein concentration is determined using the Bio-Rad Protein Assay (Bio-Rad). Proteins are separated by SDS-PAGE under denaturing conditions, and electrotransferred to a nitrocellulose membrane (Amersham Biosciences, Amersham, U.K.) (Western blotting). The membranes are blocked in TBS containing 0.05% Tween 20 and 5% non-fat dried milk, and then incubated with anti-pAkt or Akt antibody followed by an horse radish peroxidase-conjugated secondary antibody (Dako UK Ltd., Ely, UK). Bound antibodies are visualized by ECL Plus (GE Healthcare UK Ltd., Little Chalfont, UK). The band density is calculated by densitometry (UVP Bioimaging Systems, Cambridge, UK) using Labworks software (Ultra-Violet Products, Cambridge, UK).
Effects of compounds on H2O2-induced phosphorylation of Akt in PMA-differentiated U937 cells. PMA-differentiated macrophage-like cells are pretreated with compounds described herein for 20 min. After H2O2 (1 mM) stimulation for 30 min, cells are lysed. Phosphorylation levels of Akt are measured by western blot. Data are calculated relative to total protein, and expressed as fold changes against positive control treated with H2O2 only. Values represent means of three or four experiments±SEM.

[4] = tested on: U937 cells; test: H2O2-induced steroid insensitivity in U937 cells (dexamethasone IC50 on TNFα-induced IL-8); type: cell-based, human; conditions: highest concentration tested (100 μM); H2O2 200 μM
Description: as §1
Restoration of steroid sensitivity. U937 cells: U937 are treated with oxidative stress (H2O2, 200 μM or 0.15 dilution CSM (cigarette smoke conditioned medium)) and 4 hours later, stimulated with TNFα (10 ng/ml) in the presence of dexamethasone (10^−11-10^−6M). Supernatant and cells are collected 24 hrs after stimulation and IL-8 is measured by conventional ELISA. As the index of corticosteroid sensitivity, IC50 of dexamethasone is calculated. Test compounds are treated 20 min before oxidative stress treatment.
Effects of compounds on H2O2-induced steroid insensitivity in U937 cells. Cells stimulated with H2O2 (200 μM) overnight are incubated with compounds described herein for 30 min under H2O2 (200 μM) exposure. The cells are treated with dexamethasone (10^−11 to 10^−6 M) for 20 min, followed by the TNFα stimulation overnight. TNFα-induced IL-8 release is evaluated by ELISA and IC50 values for dexamethasone on IL-8 production are calculated using Prism. Data are expressed as fold changes against positive control treated with H2O2 only. Values represent means of four experiments±SEM. H2O2 exposure reduces dexamethasone sensitivity by approximately 4 fold based on calculated IC50 values of TNFα-induced IL-8 production.

[5] = tested on: TNFα; test: LPS-induced TNFα release in PMA-differentiated U937 cells (ELISA); type: cell-based, human; conditions: for TNFα inhibition (%): test concentration not given
Description: as §1, §2

[6] = tested on: MMP9; test: PMA-induced MMP9 expression in U937 cells (gelatin zymography); type: cell-based, human; conditions: test concentration not given; bracketed second value not explained
Description: Zymography. MMP9 enzyme activity is measured by gelatin zymography. 5 μl of supernatants were diluted with 5 μl Laemli sample buffer (Bio-Rad) and are loaded on a Novex® 10% Zymogram (Gelatin) gel (Invitrogen). After electrophoresis (90 min, 125 V, 35 mA, 5 W) gels are incubated with 1× Novex® zymogram renaturing buffer (Invitrogen) for 30 min at room temperature with gentle agitation. Gels are then rinsed in 1× Novex® zymogram developing buffer (Invitrogen) for 30 min at room temperature with gentle agitation prior to overnight incubation in the developing buffer at 37° C. After incubation the gels are stained using the colloidal blue staining kit (Invitrogen) with buffer containing 20% methanol and 70% distilled water to visualize the zymogen bands. Relevant band intensities are quantified by densitometric analysis using the UVP GelDoc-It system.
Effects of compounds on PMA-induced MMP9 expression in U937 cells. U937 cells are pretreated with compounds described herein for 1 hr, followed by PMA (50 ng/ml) treatment for 48 hrs. After 48 hrs supernatants are collected for zymography. MMP9 enzyme activity is measured by gelatin zymography. Data are expressed as fold changes against positive control treated with PMA only. Values represent means of three experiments±SEM.

[7] = tested on: HDAC activity; test: H2O2-induced reduction of HDAC activity in PMA-differentiated U937 cells; type: cell-based, human; conditions: for restoration of H2O2-reduced HDAC activity (%): test concentration not given, bracketed second value not explained
Description: In cell HDAC assay. Cells are incubated with Fluor de Lys™ substrate for 1 hr before lyses. Total HDAC activity from whole cell extracts is measured using the HDAC Fluorimetric Assay/Drug Discovery Kit (BIOMOL® International, Inc., Plymouth Meeting, Pa.).
HDAC expression: In cell HDAC activity assay: U937 is differentiated to macrophage type cells by PMA for 3 days. HDAC fluorescent substrate (Biomol) is added before exposure of oxidative stress (H2O2, 200 μM) or Tobacco smoke conditioned medium for 4 hrs. HDAC activity is measured (Biomol kit). Compounds at different concentrations are treated 20 min before oxidative stress treatment.
PMA-differentiated macrophage-like cells are pretreated with compounds described herein for 20 min. After H2O2 (200 μM) stimulation for 4 hrs, HDAC activity is assayed. Data are expressed as fold changes against positive control treated with H2O2 only. Values represent means of four experiments±SEM.

[8] = tested on: H. influenzae ATCC 49247; test: MIC; type: cell-based
[9] = tested on: S. aureus ATCC 29213 (MSSA) MLS-S; test: MIC; type: cell-based
[10] = tested on: E. faecium ATCC 19434; test: MIC; type: cell-based
[11] = tested on: S. pneumoniae ATCC 49619; test: MIC; type: cell-based
[12] = tested on: K. pneumonia 13883; test: MIC; type: cell-based; conditions: in µg/mL
[13] = tested on: S. aureus MRSA 33591; test: MIC; type: cell-based
[14] = tested on: H. influenzae LC002; test: MIC; type: cell-based
[15] = tested on: S. aureus 96:11480 (MLS-I); test: MIC; type: cell-based; design: unit not given beside the values
[16] = tested on: S. pneumoniae 303 (ErmB); test: MIC; type: cell-based
[17] = tested on: S. pneumoniae 163 (MefA); test: MIC; type: cell-based; conditions: in µg/mL
[18] = tested on: E. coli ATCC 25922; test: MIC; type: cell-based; conditions: in µg/mL
[19] = tested on: N. gonorrhoeae ATCC 49226; test: MIC; type: cell-based; design: unit not given beside the values
[20] = tested on: S. typhimurium ATCC 14028; test: MIC; type: cell-based; conditions: in µg/mL
[21] = tested on: P. aeruginosa ATCC 27853; test: MIC; type: cell-based

Row | SMILES | IL-8 inhibition (%) [1] [%] | TNFα inhibition (%) [5] [%] | MMP9 inhibition (%) [6] | restoration of H2O2-reduced HDAC activity (%) [7] | MIC H. influenzae ATCC 49247 [8] [µg/mL] | Cell Toxicity (% cell death) ([2]; test concentration not given) [%] | MIC S. aureus ATCC 29213 (MSSA) MLS-S [9] [µg/mL] | MIC E. faecium ATCC 19434 [10] [µg/mL] | MIC S. pneumoniae ATCC 49619 [11] [µg/mL] | MIC K. pneumonia 13883 [12] | MIC S. aureus MRSA 33591 [13] [µg/mL] | also measured
1 | CC[C@H]1OC(=O)[C@H](C)[C@@H](O[C@H]2C[C@@](C)(OC)[C@@H](O)[C@H](C)O2)[C@H](C)[C@@H](O[C@@H]2O[C@H](C)C[C@H](N(C)C)[C@H]2O)[C@](C)(OC)C[C@@H](C)C(=O)[C@H](C)[C@@H](O)[C@]1(C)O [CLR, clarithromycin, reference compound] | 17 | 21 | 8 (22) % | 14% | – | – | – | – | – | – | – | IC50 ([1]; Homo sapiens, U-937, LPS-induced IL-8 release, PMA-differentiated U937, NA = inactive): 507 ± 44 µM; inhibition of LPS-induced IL-8 release compared with Example 33 ([1]; LPS 100 ng/ml 4 hrs): at higher concentrations than Example 33; Cell Toxicity (% cell death) ([2]; human): −7%; inhibition of Akt phosphorylation compared with Example 33 [3]: only at much higher concentrations than Example 33; restoration of dexamethasone sensitivity [4]: None of ERY, CLR, or AZI restored dexamethasone sensitivity; IC50 ([5]; Homo sapiens, U-937, LPS-induced TNFα release, PMA-differentiated U937, NA = inactive): 426 ± 64 µM; inhibition of LPS-induced TNFα release compared with Example 33 ([5]; LPS 100 ng/ml 4 hrs): at higher concentrations than Example 33; restoration of HDAC activity compared with Example 33 ([7]; PMA-differentiated U937, H2O2 200 μM 4 hrs): only at much higher doses than Example 33; HDAC activity reached compared with untreated controls ([7]; PMA-differentiated U937, H2O2 200 μM, comparators at highest doses tested): only restore HDAC activity to levels comparable to untreated controls
2 | CC[C@H]1OC(=O)[C@H](C)C(=O)[C@H](C)[C@@H](O[C@H]2C[C@@H](N(C)C)[C@H](O)[C@@H](C)O2)[C@@](C)(OC)C[C@@H](C)C(=O)[C@H](C)[C@H]2N(CCCCn3cc(-c4ccccn4)nn3)C(=O)O[C@]12C [Example 21] | 59 | 14 | 49 (41) % | 36% | > 64 | 3 | > 64 | > 64 | > 64 | >64 | > 64 | MIC H. influenzae LC002 [14]: > 64 µg/mL
3 | CCC1OC(=O)C(C)(F)C(=O)C(C)C(OC2OC(C)CC(N(C)C)C2O)C(C)(OC)CC(C)C(=O)C(C)C2N(CCCCn3cc(Cn4nnc5ccccc54)nn3)C(=O)OC12C (stereo not shown) [Example 22] | 76 | 48 | 38 (23) % | 22 (29) % | 2 (≈ 2.26 µM) | 11 | ≤ 0.125 | ≤ 0.125 | ≤ 0.125 | >64 | > 64 | MIC S. aureus 96:11480 (MLS-I) [15]: ≤0.125; MIC S. pneumoniae 303 (ErmB) [16]: ≤ 0.125 µg/mL; MIC S. pneumoniae 163 (MefA) [17]: 64; MIC E. coli ATCC 25922 [18]: >64; MIC N. gonorrhoeae ATCC 49226 [19]: 0.25; MIC S. typhimurium ATCC 14028 [20]: 64; MIC P. aeruginosa ATCC 27853 [21]: > 64 µg/mL
